Each structure is given as a SMILES string. Activity calls are given as the source filed them. The calls are words filed in the database; no cut-off is given here.

Test [1] deals with D(1A) dopamine receptor (Homo sapiens) (UniProt P21728). The test is described as follows: Displacement of [3H]SCH-23390 from human dopamine D1 receptor expressed in CHO cell membrane assessed as inhibition of radioligand binding at 100 nM incubated for 60 mins by competition binding based scintillation counter analysis relative to control. The class given is cell membranes. (Loss of bound radioactivity is the signal in a displacement assay; it reports binding, not function.)
Sequence of D(1A) dopamine receptor (Homo sapiens) (P21728 whole entry): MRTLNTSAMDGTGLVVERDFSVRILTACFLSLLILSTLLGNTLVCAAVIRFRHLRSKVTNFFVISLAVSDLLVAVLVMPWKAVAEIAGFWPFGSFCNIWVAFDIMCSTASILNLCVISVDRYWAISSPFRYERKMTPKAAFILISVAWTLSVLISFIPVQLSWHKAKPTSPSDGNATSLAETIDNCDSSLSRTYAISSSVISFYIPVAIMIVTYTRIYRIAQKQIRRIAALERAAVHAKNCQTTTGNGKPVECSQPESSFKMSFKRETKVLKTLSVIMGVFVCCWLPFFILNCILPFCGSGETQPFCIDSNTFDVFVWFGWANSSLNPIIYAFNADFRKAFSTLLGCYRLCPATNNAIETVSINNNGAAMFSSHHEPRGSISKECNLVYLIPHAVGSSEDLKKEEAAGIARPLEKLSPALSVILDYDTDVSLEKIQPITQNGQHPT

Test [2] addresses Sodium-dependent serotonin transporter (Homo sapiens) (UniProt P31645). The test is described as follows: Displacement of [3H]-imipramine from human 5-HT transporter expressed in CHO cell membrane assessed as inhibition of radioligand binding at 100 nM incubated for 60 mins by competition binding based scintillation counter analysis relative to control. The class given is cell membranes.

Test [3] deals with D(2) dopamine receptor (Homo sapiens) (UniProt P14416). The test is described as follows: Displacement of [3H]7-OH-DPAT from human dopamine D2 receptor expressed in HEK293 cell membrane assessed as inhibition of radioligand binding at 100 nM incubated for 60 mins by competition binding based scintillation counter analysis relative to control. The class given is cell membranes.
Sequence of D(2) dopamine receptor (Homo sapiens) (P14416 whole entry): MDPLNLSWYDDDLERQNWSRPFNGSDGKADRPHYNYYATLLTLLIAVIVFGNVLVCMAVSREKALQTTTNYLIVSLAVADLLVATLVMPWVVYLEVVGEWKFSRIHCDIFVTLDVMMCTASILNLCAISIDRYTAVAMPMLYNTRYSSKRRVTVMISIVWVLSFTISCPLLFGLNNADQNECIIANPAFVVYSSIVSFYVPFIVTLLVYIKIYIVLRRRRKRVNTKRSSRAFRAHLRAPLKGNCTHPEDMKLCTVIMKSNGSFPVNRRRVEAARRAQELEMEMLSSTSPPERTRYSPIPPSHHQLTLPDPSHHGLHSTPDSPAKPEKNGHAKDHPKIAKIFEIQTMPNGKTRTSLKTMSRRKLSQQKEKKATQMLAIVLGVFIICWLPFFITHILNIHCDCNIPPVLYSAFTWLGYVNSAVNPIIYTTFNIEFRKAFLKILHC

Test [4] concerns the target 5-hydroxytryptamine receptor 2A (Homo sapiens) (UniProt P28223). The test is described as follows: Displacement of [125I]DOI from human 5-HT2A receptor expressed in HEK293 cell membrane assessed as inhibition of radioligand binding at 100 nM incubated for 60 mins by competition binding based scintillation counter analysis relative to control. The class given is cell membranes.

Test [5] relates to Mus musculus. The test is described as follows: Analgesic activity against formalin-induced inflammatory pain C57Bl/6 mouse model assessed as reduction in licking response at 5 mg/kg,SC pretreated for 30 min followed by formalin challenge and measured after 30 mins. To be noted: time 60.0 min. The class given is functional, organism-based.
Test [6] deals with Mus musculus. The test is described as follows: Analgesic activity in thermal stimulated CD-1 mouse assessed as increase in latency to pain response at 5 mg/kg,SC administration measured after 30 mins by tail flick assay. The class given is functional, organism-based.
Test [7] has as its system Mus musculus. The test is described as follows: Analgesic activity in naloxone induced CD-1 mouse assessed as increase in latency to pain response at 5 mg/kg,po administration measured after 30 mins by tail flick assay. The class given is functional, organism-based. On the technique in general: Thermal pain tests record how soon the animal reacts.
Test [8] concerns the target Sodium-dependent serotonin transporter (Homo sapiens) (UniProt P31645). Nature of the test: Displacement of [3H]-imipramine from human 5-HT transporter expressed in CHO cell membrane assessed as inhibition of radioligand binding at 200 nM incubated for 60 mins by competition binding based scintillation counter analysis relative to control. The class given is cell membranes.

For test [9], the target named is T1, Alpha-1A adrenergic receptor (Homo sapiens) (UniProt P35348).
T1 sequence (whole entry): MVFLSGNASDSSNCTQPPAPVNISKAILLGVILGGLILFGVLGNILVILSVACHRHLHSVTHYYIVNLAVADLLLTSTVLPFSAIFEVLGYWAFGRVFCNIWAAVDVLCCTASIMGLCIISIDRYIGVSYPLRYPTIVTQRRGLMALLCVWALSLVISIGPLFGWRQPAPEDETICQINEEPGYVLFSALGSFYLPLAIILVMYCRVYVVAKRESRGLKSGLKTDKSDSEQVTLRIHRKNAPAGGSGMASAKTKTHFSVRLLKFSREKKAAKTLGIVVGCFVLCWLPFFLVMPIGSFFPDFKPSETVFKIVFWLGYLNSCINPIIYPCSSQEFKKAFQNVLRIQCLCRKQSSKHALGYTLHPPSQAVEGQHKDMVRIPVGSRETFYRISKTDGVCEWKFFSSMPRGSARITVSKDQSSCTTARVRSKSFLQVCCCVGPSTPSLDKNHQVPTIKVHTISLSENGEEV
Nature of the test: Antagonist activity at human alpha 1A adrenergic receptor expressed in CHO-K1 cells assessed as inhibition of phenylephrine induced […] calcium response at <= 10 uM by whole cell-based assay. The class given is functional. The conditions noted are these: filed as antagonist.

Sequence of 5-hydroxytryptamine receptor 2A (Homo sapiens) (P28223 whole entry): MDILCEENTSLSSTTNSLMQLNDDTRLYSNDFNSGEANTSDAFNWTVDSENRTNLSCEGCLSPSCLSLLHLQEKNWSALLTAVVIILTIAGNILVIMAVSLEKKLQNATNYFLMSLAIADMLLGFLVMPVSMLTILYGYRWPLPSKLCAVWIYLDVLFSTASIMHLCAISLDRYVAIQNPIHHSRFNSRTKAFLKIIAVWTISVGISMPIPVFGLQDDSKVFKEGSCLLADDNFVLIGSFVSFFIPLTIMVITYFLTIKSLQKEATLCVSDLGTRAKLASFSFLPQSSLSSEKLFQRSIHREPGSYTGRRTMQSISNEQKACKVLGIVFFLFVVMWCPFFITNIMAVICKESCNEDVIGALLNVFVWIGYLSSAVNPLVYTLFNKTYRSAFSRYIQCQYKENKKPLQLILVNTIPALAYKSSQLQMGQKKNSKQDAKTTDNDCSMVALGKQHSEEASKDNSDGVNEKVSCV
Sequence of Sodium-dependent serotonin transporter (Homo sapiens) (P31645 whole entry, looked up): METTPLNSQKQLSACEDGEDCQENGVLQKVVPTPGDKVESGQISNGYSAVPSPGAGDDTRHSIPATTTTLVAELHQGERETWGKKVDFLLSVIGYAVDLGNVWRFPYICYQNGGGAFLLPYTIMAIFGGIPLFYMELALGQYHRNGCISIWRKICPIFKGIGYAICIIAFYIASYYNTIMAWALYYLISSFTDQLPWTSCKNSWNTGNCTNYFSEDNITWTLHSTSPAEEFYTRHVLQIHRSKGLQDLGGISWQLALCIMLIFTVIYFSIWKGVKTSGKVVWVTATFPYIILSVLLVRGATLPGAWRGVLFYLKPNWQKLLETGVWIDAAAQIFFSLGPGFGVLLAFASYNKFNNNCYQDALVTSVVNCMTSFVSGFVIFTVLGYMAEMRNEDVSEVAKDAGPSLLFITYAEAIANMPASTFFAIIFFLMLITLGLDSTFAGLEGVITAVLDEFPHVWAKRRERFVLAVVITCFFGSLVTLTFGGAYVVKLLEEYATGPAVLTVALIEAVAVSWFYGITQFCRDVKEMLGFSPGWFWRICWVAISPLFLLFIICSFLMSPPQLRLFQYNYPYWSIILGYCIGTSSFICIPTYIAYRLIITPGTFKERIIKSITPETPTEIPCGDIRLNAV

Regarding `O=C1CN2c3c(cccc3[C@@H]3CN(CCCO)CC[C@@H]32)N1`, the inhibition entry in [1], in test [2] and in test [3] was “inactive” throughout.

Consider `Cc1cc(F)cc(C)c1OCCCN1CC[C@H]2[C@@H](C1)c1cccc3c1N2CC(=O)N3`, for which the inhibition entry in test [1] and in [3] was “inactive” each time.

As to `CCCCN1CC[C@H]2[C@@H](C1)c1cccc3c1N2CC(=O)N3`, the inhibition entry in [1], in test [4] and in [2] was “inactive” each time.

In the case of `O=C1CN2c3c(cccc3[C@@H]3CN(CCCOc4ccc(O)cc4)CC[C@@H]32)N1`, the inhibition entry in [1] is “inactive”.

For the compound `O=C1CN2c3c(cccc3[C@@H]3CN(CCCOc4ccc5c(c4)OCO5)CC[C@@H]32)N1`, the inhibition entry in test [1] and in test [4] was “inactive” each time.

Consider `CN1CC[C@]23c4c5ccc(O)c4O[C@H]2[C@@H](O)C=C[C@H]3[C@H]1C5`, for which the outcome in the test with Mus musculus [5] and in the test with Mus musculus [6] was Active. Further, the result in the test on Mus musculus [7] was inactive.

With `COc1ccc(OCCCN2CC[C@H]3[C@@H](C2)c2cccc4c2N3CC(=O)N4)cc1`, the inhibition entry in test [1] and in [4] was “inactive” each time.

As for `NC(=O)c1cc(F)ccc1OCCCN1CC[C@H]2[C@@H](C1)c1cccc3c1N2CC(=O)N3`, the inhibition result in [1] and in test [3] was “inactive” each time.

Consider `CC1C(=O)Nc2cccc3c2N1[C@H]1CCN(CCCOc2ccc(F)cc2)C[C@@H]31` (stereo partly specified), for which, in [2], the inhibition entry is “inactive”.

As for `O=C1CN2c3c(cccc3[C@@H]3CN(CCOc4ccc(F)cc4)CC[C@@H]32)N1`, the inhibition result in test [2] is “inactive”.

Consider `O=C1CN2c3c(cccc3[C@@H]3CN(CCCS(=O)(=O)c4ccc(F)cc4)CC[C@@H]32)N1`, for which the inhibition entry in test [1], in test [8] and in test [3] was “inactive” each time.

As to `O=C1CN2c3c(cccc3[C@@H]3CN(CCCOc4ccc(Br)cc4)CC[C@@H]32)N1`, the inhibition entry in test [1] is “inactive”.

Regarding `O=C1CN2c3c(cccc3[C@@H]3CN(CCCOc4ccc(F)cc4)CC[C@@H]32)N1`, in test [9], the outcome was Active.

Take `O=C1CN2c3c(cccc3[C@@H]3CN(CCCCOc4ccc(F)cc4)CC[C@@H]32)N1`: in [2], the inhibition entry was “inactive”.
